The text below walks through data of patent publication US20250145589A1, “PYRIDINE DERIVATIVE AND USE THEREOF” (SICHUAN HUIYU PHARMACEUTICAL CO., LTD., priority 2021, published 2025).

In one assay the target is PI3Kα (Homo sapiens (Human), UniProt P42336). Nature of the assay: Inhibition of PI3Kα efficacy assay (ADP-Glo kinase assay). Format: biochemical. The following applies: read-out: PI3Kα inhibitory activity (IC50). Put shortly: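 Eight five-fold dilutions of compound (2 mM DMSO stock) tested; kinase reaction with PI and ATP ran 60 min at RT, followed by ADP-Glo and detection reagent steps of 40 min each. Four-parameter logistic fitting gave IC50 values.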

The target in another assay is PI3Kδ (Homo sapiens (Human), UniProt O00329). The experiment in a line: Inhibition of PI3Kδ efficacy assay (ADP-Glo kinase assay). Format: biochemical. Conditions: read-out: PI3Kδ inhibitory activity (IC50). Put shortly:
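Luminescent ADP-Glo readout of PI3Kδ: after a 60 min RT reaction with PI/ATP substrate, ATP depletion (40 min) and ADP detection (40 min) steps followed. Compounds tested as eight five-fold serial dilutions; inhibition rates fitted to log(inhibitor) vs. response, variable slope, for IC50.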

A further assay has as its target KRAS^G12C-SOS1 (Homo sapiens (Human), UniProt P01116, G12C). Nature of the assay: HTRF KRAS G12C/SOS1 binding assay. The following applies: Table 5. The protocol:
Initially, a 2 mM stock solution of the test compound (dissolved in DMSO) was serially diluted in five-fold concentrations using DMSO to obtain eight working solutions 1 (200×). Subsequently, each of the eight working solutions 1 was further diluted in a 20-fold gradient by adding 5 μL into 95 μL of Diluent buffer, mixed completely with vortex mixer, resulting in eight working solutions 2 (10×). […] Subsequently, 5 μL of Anti-tag 1-Tb^3+ stock solution and 5 μL of Anti-tag2-XL665 were added to each well, mixed, and incubated at 4° C. for 3 hours. Remove the plate and read on an HTRF® compatible reader, with the excitation light wavelength set at 337 nm and readings recorded at 620 nm and 665 nm. The data results were presented as the ratio of the 665 nm signal value to the 620 nm signal value for each well, calculated as follows: […]. The inhibition rate was calculated using the following formula: […]
Data were analyzed using GraphPad Prism with log (inhibitor) vs. response-Variable Slope (four parameters) fitting calculations for IC50 values.

Assay [1] concerns NCI-H358 cells (KRAS G12C mutant). Nature of the assay: NCI-H358 cell proliferation inhibition (CellTiter-Glo). In kind it is cell-based. Conditions: Homo sapiens, NCI-H358, 72 h; H358 cells (G12C mutation), 3 days, Table 6; read-out: NCI-H358 (IC50).
For assay [2], the system named is MIA PaCa-2 cells (KRAS G12C mutant). The experiment in a line: MIA PaCa-2 cell anti-proliferation (CellTiter-Glo). In kind it is cell-based. Conditions: Homo sapiens, 72 h; MIA Paca-2 cells, 3 days, Table 7; read-out: MIA PaCa-2 (IC50). Put shortly:
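Viable-cell luminescence (CellTiter-Glo, ≥30 min at 25 °C) measured after a 3-day, 37 °C exposure to compounds at 9 points, 4-fold spaced, in DMEM containing 10% FBS plus 2.5% horse serum. IC50 derived versus no-inhibitor wells.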

Assay [3] relates to NCI-H358-AMGR drug-resistant cell line. Nature of the assay: NCI-H358-AMGR drug-resistant cell proliferation inhibitory activity test. The following applies: 72 h; NCI-H358-AMGR drug-resistant cells, 3 days incubation, CellTiter-Glo. In kind it is cell-based. The protocol: Test Example 6t Generation of NCI-H358-AMGR Drug-Resistant Cell Line
NCI-H358 cells were seeded and cultured at 50 to 70% confluence in six-well plate with RPMI-640 (10% FBS) medium at 37° C. with 5%4 CO2. AMG510 was added for induction at three starting concentrations of 1 nM, 10 nM and 50 nM, and the medium containing the same concentration of AMG510 was replaced every 3 days. Cells were passaged once they reached confluence. After every, two passages at a given concentration of drug, the concentration was increased in a 3-old increment until final concentrations of 1 μM for AMG510 was achieved.
NCI-H358-AMGR cells in logarithmic growth phase were collected and seeded into a clear-bottom 96-well plate at a density of 4×10^3 cells per well in 80 μL of medium, and then incubated overnight at 37° C. with 5% CO2. The compounds were serially diluted 5-fold in DMSO to obtain 8 concentrations, and then further diluted with RPMI-640) (10% FBS) cell culture medium to obtain the working solutions (5×), 20 μL of each working solution was added to the cell culture supernatant in each well, and the plate was further incubated for 3 days at 37° C. with 5% CO2. The plate was then equilibrated with CellTiter-Glo® reagent at room temperature (25° C.) for 10-30 minutes. After aspirating 50 μL of the medium, 50 μL of CellTiter-Glo®, reagent was added. The cells were thoroughly mixed with the CellTiter-Glo®, reagent using a microplate shaker for 2 minutes, and then incubated at room temperature for 10 minutes. The […] was placed in a multi-mode microplate reader to record the luminescence values (RLU).
The inhibitory rate was calculated using the following formula: […]
Data were analyzed using GraphPad Prism for IC50 values (Note: The negative control refers to the group without inhibitor).

Where two headings read alike, the source gives them in different places.

Sequence of KRAS^G12C-SOS1 (P01116-2 other isoform, or with tags, fused parts or gaps G12C): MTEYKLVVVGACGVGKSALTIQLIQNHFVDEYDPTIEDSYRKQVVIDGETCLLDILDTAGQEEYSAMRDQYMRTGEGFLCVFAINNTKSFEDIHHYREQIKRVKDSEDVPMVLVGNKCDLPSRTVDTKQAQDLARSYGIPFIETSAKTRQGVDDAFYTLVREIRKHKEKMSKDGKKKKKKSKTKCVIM
Sequence of PI3Kα (P42336 whole entry): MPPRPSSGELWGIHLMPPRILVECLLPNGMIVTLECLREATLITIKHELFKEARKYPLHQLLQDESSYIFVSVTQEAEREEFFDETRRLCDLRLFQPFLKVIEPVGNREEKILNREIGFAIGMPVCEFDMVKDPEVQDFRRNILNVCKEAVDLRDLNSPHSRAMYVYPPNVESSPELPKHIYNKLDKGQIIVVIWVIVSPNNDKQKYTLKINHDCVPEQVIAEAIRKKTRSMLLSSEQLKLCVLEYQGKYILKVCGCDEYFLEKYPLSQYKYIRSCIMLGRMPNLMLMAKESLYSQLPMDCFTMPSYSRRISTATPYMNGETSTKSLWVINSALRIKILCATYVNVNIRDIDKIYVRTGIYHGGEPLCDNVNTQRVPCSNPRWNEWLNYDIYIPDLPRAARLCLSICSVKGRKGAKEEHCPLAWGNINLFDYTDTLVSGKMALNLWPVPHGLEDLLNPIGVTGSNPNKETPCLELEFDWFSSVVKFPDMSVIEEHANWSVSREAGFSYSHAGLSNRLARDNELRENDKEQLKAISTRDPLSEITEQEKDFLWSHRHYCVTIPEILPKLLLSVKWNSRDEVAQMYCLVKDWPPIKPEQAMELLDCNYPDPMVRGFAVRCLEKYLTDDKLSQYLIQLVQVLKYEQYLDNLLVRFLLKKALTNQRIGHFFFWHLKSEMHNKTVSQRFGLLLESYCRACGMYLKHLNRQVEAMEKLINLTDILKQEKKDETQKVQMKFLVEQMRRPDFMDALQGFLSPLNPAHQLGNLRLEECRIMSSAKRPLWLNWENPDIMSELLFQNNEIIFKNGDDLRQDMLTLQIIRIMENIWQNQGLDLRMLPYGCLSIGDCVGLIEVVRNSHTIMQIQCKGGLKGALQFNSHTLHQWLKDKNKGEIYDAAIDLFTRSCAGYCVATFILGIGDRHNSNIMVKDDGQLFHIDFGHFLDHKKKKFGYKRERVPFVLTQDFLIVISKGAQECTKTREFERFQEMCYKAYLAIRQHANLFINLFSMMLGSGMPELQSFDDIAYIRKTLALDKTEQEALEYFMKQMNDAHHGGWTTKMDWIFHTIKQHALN
Sequence of PI3Kα (P27986 whole entry partner): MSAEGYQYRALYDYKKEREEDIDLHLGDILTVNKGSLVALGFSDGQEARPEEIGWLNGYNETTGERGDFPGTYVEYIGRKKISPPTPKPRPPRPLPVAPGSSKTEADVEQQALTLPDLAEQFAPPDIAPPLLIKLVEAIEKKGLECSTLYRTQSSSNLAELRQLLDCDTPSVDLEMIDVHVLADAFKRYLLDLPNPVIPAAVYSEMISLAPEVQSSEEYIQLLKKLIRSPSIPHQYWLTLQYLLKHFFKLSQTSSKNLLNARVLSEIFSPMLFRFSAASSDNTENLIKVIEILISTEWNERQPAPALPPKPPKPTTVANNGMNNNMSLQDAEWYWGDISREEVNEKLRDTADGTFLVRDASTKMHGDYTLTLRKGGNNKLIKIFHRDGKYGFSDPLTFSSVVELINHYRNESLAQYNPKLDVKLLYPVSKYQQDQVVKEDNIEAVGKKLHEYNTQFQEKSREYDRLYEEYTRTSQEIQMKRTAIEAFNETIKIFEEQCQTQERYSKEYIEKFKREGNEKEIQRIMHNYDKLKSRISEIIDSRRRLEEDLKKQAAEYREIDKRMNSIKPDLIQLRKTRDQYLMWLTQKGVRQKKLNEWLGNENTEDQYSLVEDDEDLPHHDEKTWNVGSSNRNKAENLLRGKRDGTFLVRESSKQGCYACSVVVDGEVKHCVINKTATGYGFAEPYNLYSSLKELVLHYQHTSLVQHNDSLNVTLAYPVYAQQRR
Sequence of PI3Kδ (O00329 whole entry): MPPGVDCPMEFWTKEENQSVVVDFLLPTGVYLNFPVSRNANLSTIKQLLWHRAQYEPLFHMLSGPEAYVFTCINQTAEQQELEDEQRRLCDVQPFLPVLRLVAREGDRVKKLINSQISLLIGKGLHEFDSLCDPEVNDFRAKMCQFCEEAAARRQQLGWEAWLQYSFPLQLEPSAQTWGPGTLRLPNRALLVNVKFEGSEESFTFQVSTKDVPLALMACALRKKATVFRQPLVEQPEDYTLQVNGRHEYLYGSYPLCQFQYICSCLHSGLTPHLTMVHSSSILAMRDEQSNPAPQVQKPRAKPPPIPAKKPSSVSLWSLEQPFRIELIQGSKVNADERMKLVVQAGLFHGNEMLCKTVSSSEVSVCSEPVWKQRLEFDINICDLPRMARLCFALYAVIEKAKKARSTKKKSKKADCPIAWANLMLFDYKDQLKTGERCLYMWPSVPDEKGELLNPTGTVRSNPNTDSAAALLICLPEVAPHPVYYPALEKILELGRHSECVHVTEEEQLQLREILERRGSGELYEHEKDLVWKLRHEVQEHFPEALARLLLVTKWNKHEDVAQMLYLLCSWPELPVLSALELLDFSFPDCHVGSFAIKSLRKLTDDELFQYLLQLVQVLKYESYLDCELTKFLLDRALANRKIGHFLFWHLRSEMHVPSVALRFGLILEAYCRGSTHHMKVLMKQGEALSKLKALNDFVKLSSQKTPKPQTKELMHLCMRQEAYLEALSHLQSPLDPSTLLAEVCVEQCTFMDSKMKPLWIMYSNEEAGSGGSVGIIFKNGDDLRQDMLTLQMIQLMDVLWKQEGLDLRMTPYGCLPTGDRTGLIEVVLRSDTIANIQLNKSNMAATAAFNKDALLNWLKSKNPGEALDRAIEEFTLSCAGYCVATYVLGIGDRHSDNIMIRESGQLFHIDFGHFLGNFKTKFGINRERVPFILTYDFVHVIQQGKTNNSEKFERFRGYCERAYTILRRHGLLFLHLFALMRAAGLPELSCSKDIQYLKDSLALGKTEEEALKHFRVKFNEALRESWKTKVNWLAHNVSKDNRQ
Sequence of PI3Kδ (P27986 whole entry partner): as the sequence (P27986 whole entry partner) above

`COc1ncc(-c2ccc3ncnc(N4CCN(C(=O)/C=C/C(C)=O)CC4)c3n2)cc1NS(=O)(=O)c1ccc(F)cc1F` [Example 132, (E)-2,4-difluoro-N-(2-methoxy-5-(4-(4-(4-oxopent-2-enoyl)piperazin-1-yl)pyrido[3,2-d]pyrimidin-6-yl)pyridin-3-yl)benzenesulfonamide]: the IC50 on PI3Kα (Table 3) stood at 3.6 nM; at PI3Kδ (Table 3), 29.2 nM; on KRAS^G12C-SOS1, 318 nM; in assay [1], 4 nM; in assay [2] it was 16.1 nM.

On to `CC(=O)/C=C/C(=O)N1CCN(c2ncnc3ccc(-c4cnc(Cl)c(NS(=O)(=O)c5c(F)cccc5F)c4)cc23)[C@@H](C)C1` [Example 88, (S,E)-N-(2-chloro-5-(4-(2-methyl-4-(4-oxopent-2-enoyl)piperazin-1-yl)quinazolin-6-yl)pyridin-3-yl)-2,6-difluorobenzenesulfonamide], for which the half-inhibitory concentration (IC50) at PI3Kα (Table 2) amounted to 2.6 nM; at PI3Kδ (Table 2) it was 11.8 nM; at KRAS^G12C-SOS1 it was 219 nM; in assay [1], 80.9 nM; in assay [2] it was 333 nM.

For the molecule `COc1ncc(-c2ccc3ncnc(N4CC5CCC(C4)N5C(=O)/C=C/C(C)=O)c3c2)cc1NS(=O)(=O)c1ccc(F)cc1F` [Example 58, 2,4-difluoro-N-(2-methoxy-5-(4-(8-((E)-4-oxopent-2-enoyl)-3,8-diazabicyclo[3.2.1]octan-3-yl)quinazolin-6-yl)pyridin-3-yl)benzenesulfon-amide], the IC50 is 3.6 nM at PI3Kα (Table 2); 8.3 nM at PI3Kδ (Table 2); 278 nM at KRAS^G12C-SOS1; 18.1 nM in assay [1]; 26.2 nM in assay [2]; 100 nM in assay [3].

For `CC(=O)/C=C/C(=O)N1CCN(c2ncnc3ccc(-c4cnc(N(C)C)c(NS(=O)(=O)c5ccc(F)cc5F)c4)cc23)CC1` [Example 195, (E)-N-(2-(dimethylamino)-5-(4-(4-(4-oxopent-2-enoyl)piperazin-1-yl)quinazolin-6-yl)pyridin-3-yl)-2,4-difluorobenzenesulfonamide], the concentration for half-maximal inhibition (IC50) on PI3Kα (Table 4) worked out at 2.4 nM; on PI3Kδ (Table 4), 13.5 nM; at KRAS^G12C-SOS1 it was 158 nM; in assay [1], 43.9 nM; in assay [2], 93.3 nM; in assay [3], 92.3 nM.

`COc1ncc(-c2ccc3ncnc(N4CCN(C(=O)/C=C/C(C)=O)CC4)c3c2)cc1NS(=O)(=O)c1ccncc1F` [Example 103, (E)-3-fluoro-N-(2-methoxy-5-(4-(4-(4-oxopent-2-enoyl)piperazin-1-yl)quinazolin-6-yl)pyridin-3-yl)pyridine-4-sulfonamide]: the IC50 at PI3Kα (Table 2) worked out at 0.95 nM; at PI3Kδ (Table 2), 32.2 nM; at KRAS^G12C-SOS1 it was 203 nM; in assay [1], 83 nM; in assay [2] it was 344 nM.

`COc1ncc(-c2ccc3ncnc(N4CCN(C(=O)/C=C/C(C)=O)CC4)c3n2)cc1NS(=O)(=O)c1ccccc1F` [Example 133, (E)-2-fluoro-N-(2-methoxy-5-(4-(4-(4-oxopent-2-enoyl)piperazin-1-yl)pyrido[3,2-d]pyrimidin-6-yl)pyridin-3-yl)benzenesulfonamide]: the IC50 amounted to 5.4 nM on PI3Kα (Table 3); 20.4 nM at PI3Kδ (Table 3); 251 nM at KRAS^G12C-SOS1; 4.1 nM in assay [1]; 12 nM in assay [2].

Turning to `CC(=O)/C=C/C(=O)N1CCN(c2ncnc3ccc(-c4cnc(Cl)c(NS(=O)(=O)c5c(F)cc(F)cc5F)c4)cc23)CC1` [Example 89, (E)-N-(2-chloro-5-(4-(4-(4-oxopent-2-enoyl)piperazin-1-yl)quinazolin-6-yl)pyridin-3-yl)-2,4,6-trifluorobenzenesulfonamide], the IC50 at PI3Kα (Table 2) came out at 2.2 nM; on PI3Kδ (Table 2) it was 8.6 nM; at KRAS^G12C-SOS1 it was 404 nM; in assay [1], 81.4 nM; in assay [2], 511 nM.

`COc1ncc(-c2ccc3ncnc(N4CCN(C(=O)/C=C/C(C)=O)CC4)c3c2)cc1NS(=O)(=O)c1cc(Cl)cn1C` [Example 104, (E)-4-Chloro-N-(2-methoxy-5-(4-(4-(4-oxopent-2-enoyl)piperazin-1-yl)quinazoline-6-yl)pyridin-3-yl)-1-methyl-1H-pyrrole-2-sulfonamide]: the IC50 at PI3Kα (Table 2) was 3.8 nM; at PI3Kδ (Table 2), 32.2 nM; at KRAS^G12C-SOS1 it was 169 nM; in assay [1], 74.2 nM; in assay [2], 139 nM.

In the case of `COc1ncc(-c2ccc3ncnc(N4CCC5(CN(C(=O)/C=C/C(C)=O)C5)C4)c3c2)cc1NS(=O)(=O)c1c(F)cc(F)cc1F` [Example 97, (E)-2,4,6-trifluoro-N-(2-methoxy-5-(4-(2-(4-oxopent-2-enoyl)-2,6-diazaspiro[3.4]octan-6-yl)quinazolin-6-yl)pyridin-3-yl)benzenesulfonamide], the half-inhibitory concentration (IC50) on PI3Kα (Table 2) turned out to be 1.4 nM; at PI3Kδ (Table 2) it was 14.1 nM; on KRAS^G12C-SOS1, 101 nM; in assay [1], 13.7 nM; in assay [2] it was 109 nM.

Consider `CC(=O)/C=C/C(=O)N1CCN(c2ncnc3ccc(-c4cnc(Cl)c(NS(=O)(=O)c5c(F)cccc5F)c4)cc23)CC1` [Example 84, (E)-N-(2-chloro-5-(4-(4-(4-oxopent-2-enoyl)piperazin-1-yl)quinazolin-6-yl)pyridin-3-yl)-2,6-difluorobenzenesulfonamide], for which the IC50 on PI3Kα (Table 2) is 0.83 nM; on PI3Kδ (Table 2), 7.6 nM; on KRAS^G12C-SOS1, 268 nM; in assay [1] it was 13 nM; in assay [2], 245 nM; in assay [3] it was 639 nM.
